Source: BindingDB's records for patent US20250346600 (Moma Therapeutics, 2025)

Assays:
[1] = biological target: T1, Bifunctional 3'-5' exonuclease/ATP-dependent helicase WRN [2-1432] (UniProt Q14191); test: WRN activity Format A
T1 construct: 2-1432
Description: Full length WRN protein (aa 2-1432) (production described separately) was used for the biochemical activity assays. The 39-mer ssDNA “C6.18” ([…]) was purchased from IDT and used as a substrate. Quantification of ATP hydrolysis was evaluated using the ADP-Glo assay kit (Promega, Madison, WI). An enzyme titration time-course was performed to determine the optimal assay conditions. […] To evaluate the inhibitory effects of the compounds, 11-point 3-fold serial dilutions were prepared in DMSO.50nL of each concentration in duplicate was preincubated for 30 minutes in a 384-well microplate (Greiner #784075) with 5μL of 0.5nM WRN in assay buffer. The reaction was initiated by adding 5μL of 200nM C6.18 DNA with 20μM ATP and was allowed to proceed for 30 minutes at room temperature. The reaction was stopped with 10μL ADP-Glo reagent for 1 hour to remove unreacted ATP. Lastly, 20μL ATP detection reagent was added and incubated for 1 hour to generate the luminescence signal. Control wells included “high controls” with no inhibition (DMSO, no compound) and “low controls” with maximum inhibition (no WRN). Luminescence was recorded on a PHERAstar (BMG Labtech, Ortenberg, Germany). Data was fit using the “Smart Fit” method within the Genedata Screener Software (Basel, Switzerland) to obtain IC50 values using four-parameter fits. Reported IC50s are the geometric means of at least two independent trials.

[2] = biological target: T1, Bifunctional 3'-5' exonuclease/ATP-dependent helicase WRN [2-1432]; test: WRN activity Format B
Description: The 39-mer ssDNA “C6.18” ([…]) was purchased from IDT and used as a substrate. Quantification of ATP hydrolysis was evaluated using the ADP-Glo assay kit (Promega, Madison, WI). An enzyme titration time-course was performed to determine the optimal assay conditions. […] Data was fit using the “Smart Fit” method within the Genedata Screener Software (Basel, Switzerland) to obtain IC50 values using four-parameter fits. Reported IC50s are the geometric means of at least two independent trials.

T1 sequence (Q14191 2-1432): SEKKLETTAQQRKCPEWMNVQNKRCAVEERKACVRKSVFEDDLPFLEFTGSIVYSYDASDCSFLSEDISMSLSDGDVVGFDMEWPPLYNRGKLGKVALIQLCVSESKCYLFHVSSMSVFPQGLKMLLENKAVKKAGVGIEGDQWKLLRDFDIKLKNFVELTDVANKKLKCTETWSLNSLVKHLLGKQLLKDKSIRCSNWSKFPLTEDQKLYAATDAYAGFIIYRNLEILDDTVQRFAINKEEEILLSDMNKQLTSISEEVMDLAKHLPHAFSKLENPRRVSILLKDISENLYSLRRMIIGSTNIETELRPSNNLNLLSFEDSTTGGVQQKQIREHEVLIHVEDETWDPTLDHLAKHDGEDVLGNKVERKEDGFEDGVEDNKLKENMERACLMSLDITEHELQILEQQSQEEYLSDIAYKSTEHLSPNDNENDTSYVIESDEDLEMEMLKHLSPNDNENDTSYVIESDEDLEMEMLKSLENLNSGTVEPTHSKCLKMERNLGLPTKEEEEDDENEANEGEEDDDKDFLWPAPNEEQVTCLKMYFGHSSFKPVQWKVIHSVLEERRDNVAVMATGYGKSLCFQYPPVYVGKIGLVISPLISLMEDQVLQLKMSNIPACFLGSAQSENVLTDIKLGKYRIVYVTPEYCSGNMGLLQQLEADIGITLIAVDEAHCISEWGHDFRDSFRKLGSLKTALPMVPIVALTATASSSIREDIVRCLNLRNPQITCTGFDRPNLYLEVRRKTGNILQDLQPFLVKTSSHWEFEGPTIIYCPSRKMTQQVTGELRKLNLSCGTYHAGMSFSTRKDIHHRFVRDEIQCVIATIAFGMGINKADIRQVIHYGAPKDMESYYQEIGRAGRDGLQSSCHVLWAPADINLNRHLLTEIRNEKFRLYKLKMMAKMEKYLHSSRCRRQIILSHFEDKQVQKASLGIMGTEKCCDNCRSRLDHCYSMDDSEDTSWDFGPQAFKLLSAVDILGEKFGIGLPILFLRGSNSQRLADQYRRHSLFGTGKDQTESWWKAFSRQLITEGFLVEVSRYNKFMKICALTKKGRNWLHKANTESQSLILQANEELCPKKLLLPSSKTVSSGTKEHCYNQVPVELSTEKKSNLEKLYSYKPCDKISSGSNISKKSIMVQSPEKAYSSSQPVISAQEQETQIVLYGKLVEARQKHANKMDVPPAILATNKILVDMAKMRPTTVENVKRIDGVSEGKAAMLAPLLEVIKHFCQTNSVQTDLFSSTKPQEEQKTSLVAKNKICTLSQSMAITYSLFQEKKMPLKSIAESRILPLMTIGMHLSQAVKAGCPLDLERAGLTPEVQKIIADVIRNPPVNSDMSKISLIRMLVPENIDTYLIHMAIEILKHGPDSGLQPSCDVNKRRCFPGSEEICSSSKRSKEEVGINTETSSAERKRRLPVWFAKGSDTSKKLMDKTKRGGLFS

C=CC(=O)N1CCOc2nn(-c3ccc(C4CCC4)cc3O)c3c2C(C1)N(C(=O)C1=CC2=NN=C(Br)C2=CC1)CC3 (stereo not drawn) [US20250346600, Compound 40]
IC50 [1]: < 1.5 nM | IC50 [2]: in the range around 35 nM

C=CC(=O)N1CCc2nn(-c3ccc(C4CC4)cc3)c3c2C(C1)N(C(=O)C1=CN=C2N=C(C(F)(F)F)N=C2C1)CC3 (stereo not drawn) [US20250346600, Compound 124]
IC50 [1]: in the range around 35 nM
